The target in one data set is T1, human liver cathepsin B (Homo sapiens, UniProt P07858).
T1 construct: Pre-warmed human liver cathepsin B (20 ng µL^–1, EMD Millipore); purchased EMD Millipore; host or cells: human liver (tissue-derived, as named)
In words: Cathepsin B-mediated cleavage assay using pyrene probes. The format is biochemical. As to conditions: 37 °C, pH 5.0. The procedure:
Each test compound (10 mM in DMSO, 2 µL) was mixed with 97 µL of MES buffer (25 mM MES-Na, 1 mM DTT, pH 5.0) and 1 µL of 1-pyrenemethylamine (10 mM in DMSO, internal standard). The mixture was incubated at 37 °C for 10 min. Pre-warmed human liver cathepsin B (20 ng µL^–1, EMD Millipore) in 100 µL MES buffer was added to the mixture, followed by incubation at 37 °C. Aliquots (10 µL) were collected at each time point (0, 0.5, 1, 3, 24, and 48 h). Cold acetonitrile containing 1% formic acid (40 µL) was added to precipitate proteins. Precipitated proteins were separated by centrifugation (15,000 × g, 4 °C, 30 min) and supernatant of each sample was analyzed for quantification by analytical HPLC (UV absorption at 342 nm). The amount of each probe was normalized to the peak area of the internal standard. All assays were performed at least three times in technical duplicate, and data shown are representative of the replicates.

A further data set can be described thus: in vitro. It counts as in vitro ADME. The conditions noted are these: BALB/c, mouse, plasma. The procedure:
Each test compound (10 mM in DMSO, 2 µL) was mixed with 1 µL of 1-pyrenemethylamine (10 mM in DMSO, internal standard) and incubated at 37 °C for 10 min. Pre-warmed human plasma pooled from healthy donors or BALB/c mouse plasma (197 µL, Innovative Research) was added to the mixture, followed by incubation at 37 °C. Aliquots (10 µL) were collected at each time point (0, 1, 6, 24, 48, and 96 h) and 40 µL of cold acetonitrile containing 1% formic acid was added to precipitate proteins. Supernatant of each sample was obtained and analyzed for quantification by analytical HPLC as described above. All assays were performed in triplicate.

For data set [1] the following is noted: ref US8512707B2; cited from earlier work.

Numbered stars: 1 amine (or outer) side, 2 acyl side, 3 side chain; on linkers, the order of the positions; unused ones are H or OH. Square brackets hold non-standard residues; d marks the D form. Peptide text beside a SMILES is read from it. * marks the point of attachment. Dolaproine = CO[C@@H]([C@@H]1CCCN1)[C@@H](C)C(=O)O; NHCH2(1-pyrenyl) = c1cc2ccc3ccc(CN*)c4ccc(c1)c2c34; Dil = CC[C@H](C)[C@H](NC)[C@@H](CC(=O)O)OC; PABC = O=C(OCc1ccc(N[*:1])cc1)[*:2]; X1 = C[C@@H](N*)[C@@H](O)c1ccccc1; Cit = NC(=O)NCCC[CH](N)C(=O)O; NMeV = CN[C@H](C(=O)O)C(C)C; Glycolyl = O=C(CO)*; Sar = CNCC(=O)O

The text below walks through data of publication PMC6023893, “Glutamic acid–valine–citrulline linkers ensure stability and efficacy of antibody–drug conjugates in mice” (Nature Communications, 2018).

One may read the half-life as the time in which the quantity being followed falls by half.

For `CC(=O)NC(CO)C(=O)NC(C(=O)NC(CCCNC(N)=O)C(=O)Nc1ccc(COC(=O)N(C)CC(=O)NCc2ccc3ccc4cccc5ccc2c3c45)cc1)C(C)C` (centres unmarked) [probe 1b] (Ac-SV[Cit][PABC][Sar]-{NHCH2(1-pyrenyl)}; configuration not given here), the “Cathepsin B-mediated cleavage rate of probes” value on human liver cathepsin B is “cleavage rate comparable with that of VCit probe 1a”. Moreover, the half-life at 100 µM in the data set “in vitro” was 3.1 h.
In the case of `CC(=O)NC(CCC(=O)O)C(=O)NC(C(=O)NC(CCCNC(N)=O)C(=O)Nc1ccc(COC(=O)N(C)CC(=O)NCc2ccc3ccc4cccc5ccc2c3c45)cc1)C(C)C` (centres unmarked) [probe 1c] (Ac-EV[Cit][PABC][Sar]-{NHCH2(1-pyrenyl)}; configuration not given here), in “in vitro”, the half-life at 100 µM is 19.1 h.
`CC(=O)NC(CCCCN)C(=O)NC(C(=O)NC(CCCNC(N)=O)C(=O)Nc1ccc(COC(=O)N(C)CC(=O)NCc2ccc3ccc4cccc5ccc2c3c45)cc1)C(C)C` (centres unmarked) [probe 1e] (Ac-KV[Cit][PABC][Sar]-{NHCH2(1-pyrenyl)}; configuration not given here) had a half-life at 100 µM in “in vitro” of 0.9 h.
On to `CC[C@H](C)[C@@H]([C@@H](CC(=O)N1CCC[C@H]1[C@H](OC)[C@@H](C)C(=O)N[C@H](C)[C@@H](O)c1ccccc1)OC)N(C)C(=O)[C@@H](NC(=O)[C@@H](NC)C(C)C)C(C)C` [MMAE, monomethyl auristatin E] (H-[NMeV]V[Dil][Dolaproine]-X1), for which, in data set [1], the “maximum tolerated dose (MTD)” value is 1 mg/kg.
`CC(=O)NC(C(=O)NC(CCCNC(N)=O)C(=O)Nc1ccc(COC(=O)N(C)CC(=O)NCc2ccc3ccc4cccc5ccc2c3c45)cc1)C(C)C` (centres unmarked) [probe 1a] gave a half-life at 100 µM in “in vitro” of 2.3 h.
On to `CC(=O)NC(CC(=O)O)C(=O)NC(C(=O)NC(CCCNC(N)=O)C(=O)Nc1ccc(COC(=O)N(C)CC(=O)NCc2ccc3ccc4cccc5ccc2c3c45)cc1)C(C)C` (centres unmarked) [probe 1d] (Ac-DV[Cit][PABC][Sar]-{NHCH2(1-pyrenyl)}; configuration not given here), for which, in “in vitro”, the half-life at 100 µM is 14 h.
`CC(C)C(NC(=O)CNC(=O)CO)C(=O)NC(CCCNC(N)=O)C(=O)Nc1ccc(COC(=O)N(C)CC(=O)NCc2ccc3ccc4cccc5ccc2c3c45)cc1` (centres unmarked) [probe 1f] (Glycolyl-GV[Cit][PABC][Sar]-{NHCH2(1-pyrenyl)}; configuration not given here) gave a half-life at 100 µM in “in vitro” of 5 h.
